Key:
Test in all cases: relative viability (nuclei count vs DMSO), 5 days (fraction); higher = more cells survive
Dabrafenib + Trametinib = compound: CC(C)(C)c1nc(-c2cccc(NS(=O)(=O)c3c(F)cccc3F)c2F)c(-c2ccnc(N)n2)s1 [Dabrafenib] + CC(=O)Nc1cccc(-n2c(=O)n(C3CC3)c(=O)c3c(Nc4ccc(I)cc4F)n(C)c(=O)c(C)c32)c1 [Trametinib] (partner 0.02 µM)
In short: (§1)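 One day after seeding in 1536-well plates, lung cancer cell lines were dosed by pin tool. Dosing was either single-drug or a fixed anchor-drug dose plus five library-drug doses (not always all listed) in √10 steps. After 5 days, nuclei were stained in one fix-and-stain step and counted on 4× images, and relative viability is the nuclei count of treated wells over that of vehicle wells, given as the median of duplicate plates.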

Dabrafenib + Pemetrexed = compound: CC(C)(C)c1nc(-c2cccc(NS(=O)(=O)c3c(F)cccc3F)c2F)c(-c2ccnc(N)n2)s1 [Dabrafenib] + Nc1nc2[nH]cc(CCc3ccc(C(=O)N[C@@H](CCC(=O)O)C(=O)O)cc3)c2c(=O)[nH]1 [Pemetrexed] (partner 0.2 µM)
In short: as §1

VX-702 + AZD7762 = compound: NC(=O)c1ccc(N(C(N)=O)c2c(F)cccc2F)nc1-c1ccc(F)cc1F [VX-702] + NC(=O)Nc1cc(-c2cccc(F)c2)sc1C(=O)N[C@H]1CCCNC1 [AZD7762] (partner 0.2 µM)
In short: as §1

Dabrafenib + Palbociclib = compound: CC(C)(C)c1nc(-c2cccc(NS(=O)(=O)c3c(F)cccc3F)c2F)c(-c2ccnc(N)n2)s1 [Dabrafenib] + CC(=O)c1c(C)c2cnc(Nc3ccc(N4CCNCC4)cn3)nc2n(C2CCCC2)c1=O [Palbociclib] (partner 0.5 µM)
In short: as §1

VX-702 + Foretinib = compound: NC(=O)c1ccc(N(C(N)=O)c2c(F)cccc2F)nc1-c1ccc(F)cc1F [VX-702] + COc1cc2c(Oc3ccc(NC(=O)C4(C(=O)Nc5ccc(F)cc5)CC4)cc3F)ccnc2cc1OCCCN1CCOCC1 [Foretinib] (partner 0.25 µM)
In short: as §1

Dabrafenib + OSI-027 = compound: CC(C)(C)c1nc(-c2cccc(NS(=O)(=O)c3c(F)cccc3F)c2F)c(-c2ccnc(N)n2)s1 [Dabrafenib] + COc1cccc2cc(-c3nc([C@H]4CC[C@H](C(=O)O)CC4)n4ncnc(N)c34)[nH]c12 [OSI-027] (partner 0.5 µM)
In short: as §1

SW 900
relative viability (Dabrafenib + Trametinib; first compound 0.009487 µM): 0.671
relative viability (Dabrafenib + Trametinib; first compound 0.09487 µM): 1.04
relative viability (Dabrafenib + Trametinib; first compound 0.3 µM): 0.93
relative viability (Dabrafenib + Pemetrexed; first compound 0.009487 µM): 0.494
relative viability (Dabrafenib + Pemetrexed; first compound 0.09487 µM): 0.477
relative viability (Dabrafenib + Pemetrexed; first compound 0.3 µM): 0.45
relative viability (VX-702 + AZD7762; first compound 0.02 µM): 0.611
relative viability (VX-702 + AZD7762; first compound 0.2 µM): 0.502
relative viability (VX-702 + AZD7762; first compound 0.6325 µM): 0.492
relative viability (VX-702 + AZD7762; first compound 2 µM): 0.572
relative viability (Dabrafenib + Palbociclib; first compound 0.009487 µM): 0.532
relative viability (Dabrafenib + Palbociclib; first compound 0.09487 µM): 0.523
relative viability (Dabrafenib + Palbociclib; first compound 0.3 µM): 0.58
relative viability (VX-702 + Foretinib; first compound 0.02 µM): 0.726
relative viability (VX-702 + Foretinib; first compound 0.2 µM): 1.02
relative viability (VX-702 + Foretinib; first compound 0.6325 µM): 0.9
relative viability (VX-702 + Foretinib; first compound 2 µM): 0.958
relative viability (Dabrafenib + OSI-027; first compound 0.009487 µM): 0.619
relative viability (Dabrafenib + OSI-027; first compound 0.03 µM): 0.466
relative viability (Dabrafenib + OSI-027; first compound 0.3 µM): 0.679

From the supplement of paper PMC10307832
